# Test system: weed species BRAPP, COMBE, DIGSA, POLCO
# Test: Adjuvant efficacy with mesotrione, glasshouse spray test, average over all species (BRAPP set)
# Assay type: in vivo
# Settings: mesotrione SC, mean over 30 and 60 g/ha; adjuvant 0.2% v/v (none in No Adjuvant rows); 21 days; Tests 1-3, species set with BRAPP (COMBE only in Test 2)
# Protocol: (§1) The efficacy of adjuvants 1-12 as an adjuvant for the herbicide mesotrione was tested in a glasshouse against four weed species sown into standard soil in pots and cultivated under controlled conditions in a glasshouse (at 24/18° C. day/night; 16 hours light; 65% humidity). Mesotrione was added to the spray tank as a standard SC (suspension concentrate) formulation.
# (§2) The spray tests were also carried out using mesotrione in conjunction with adjuvants 1-12. The adjuvants were added to the spray solution at a rate of 0.2% v/v unless otherwise stated. All spray solutions also contained 10% w/w of iso-Propanol. The weed species and their BBCH growth stage at spraying were Brachiaria platyphylla (BRAPP; growth stage 13-14) or Brachiaria plantaginea (BRAPL; growth stage 13-14), Commelina benghalensis (COMBE; growth stage 13), Digitaria sanguinalis (DIGSA; growth stage 14), and Polygonum convolvulus (POLCO; growth stage 13-14). Each spray test was replicated three times.
# (§3) The test plants were then grown in a glasshouse under controlled conditions (at 24/18° C. day/night; 16 hours light; 65% humidity) and watered twice a day. The efficacy of the herbicide was assessed visually and expressed as a percentage of the leaf area killed. Samples were assessed at a time period of 21 days following application. The results shown in Table 3 below are mean averages over the two rates of mesotrione and the three replicates.
row,Structure (SMILES),Mean % Herbicidal Activity Average over all Species [%]
1,CCCCCCCCC=CCCCCCCCCOc1cc(OCCOCCOC)ncn1 [Adjuvant 9],81
2,CCCCCCCCCOc1cc(OCCOCCOCCOCCOCCOCCOCCOC)ncn1 [Adjuvant 4],73
3,CCCCCCOc1cc(OCCOCCOCCOCCOCCOCCOCCOCCOCCOCCOC)ncn1 [Adjuvant 2],75
4,CCCCCCCCCCCCOc1cc(OCCOCCOCCOCCOCCOCCOCCOCCOCCOCCOC)ncn1 [Adjuvant 7],73
5,CCCCCCOc1cc(OCCOCCOCCOCCOCCOCCOCCOCCOCCOCCOCCOCCOCCOCCOCCOCCOCCOCCOCCOCCOC)ncn1 [Adjuvant 3],71

# Test system: Septoria tritici
# Test: Adjuvant efficacy with epoxiconazole on inoculated wheat plants
# Assay type: in vivo
# Settings: epoxiconazole SC 1.5, 4, 8.5 and 20 mg/l, 4 replicates, adjuvant 0.1% v/v (none in No Adjuvant rows), sprayed 4 days after inoculation, percentage of leaf area infected 17-18 days after infection, Tests 1-3 separate runs
# Protocol: Adjuvants 6, 7, 8 and 10 were tested as adjuvants for agrochemical compositions comprising epoxiconazole.
# Two week old wheat plants were inoculated with the fungus Septoria tritici. […] All spray solutions also contained 10% v/v of iso-Propanol. The leaves of the plants were assessed visually 17-18 days after infection and the damage was expressed as the percentage of the leaf area infected.
row,Structure (SMILES),Disease Damage Mean [%]
1,CCCCCCCCCCCCOc1cc(OCCOCCOCCOCCOCCOCCOCCOCCOCCOCCOC)ncn1 [Adjuvant 7],12

# Test system: Avena fatua (AVEFA)
# Test: Adjuvant efficacy with pinoxaden, glasshouse spray test
# Assay type: in vivo
# Settings: pinoxaden EC, mean over 7.5 and 15 g/ha and 3 replicates; adjuvant 0.2% v/v (none in No Adjuvant rows); % leaf area killed, 21 days after application; Tests 1-4 separate runs
# Protocol: (§4) The efficacy of adjuvants 1-12 as adjuvants for the herbicide pinoxaden were tested in a glasshouse against four weed species, sown into standard soil in pots and cultivated under controlled conditions in a glasshouse (at 20/16° C. day/night; 16 hours light; 65% humidity). Pinoxaden was added to the spray tank as a standard EC (emulsifiable concentrate) formulation.
# (§5) The spray tests were also carried out using pinoxaden in conjunction with adjuvants 1-12. The adjuvants were added to the spray solution at a rate of 0.2% v/v unless otherwise stated. All spray solutions also contained 10% w/w of iso-Propanol. The weed species and their BBCH growth stage at spraying were Avena fatua (AVEFA; growth stage 12), Lolium perenne (LOLPE; growth stage 13), Alopecurus myosuroides (ALOMY; growth stage 13), and Setaria viridis (SETVI; growth stage 13-14). Each spray test was replicated three times. The test plants were then grown in a glasshouse under controlled conditions (at 20/16° C. day/night; 16 hours light; 65% humidity) and watered twice a day. The efficacy of the herbicide was assessed visually and expressed as a percentage of the leaf area killed. Samples were assessed at a time period of 21 days following application. The results shown in Table 4 below are mean averages over the two rates of pinoxaden, and the three replicates.
row,Structure (SMILES),Mean % Herbicidal Activity AVEFA [%]
1,CCCCCCCCC=CCCCCCCCCOc1cc(OCCOCCOC)ncn1 [Adjuvant 9],83
2,CCCCCCCCCOc1cc(OCCOCCOCCOCCOCCOCCOCCOC)ncn1 [Adjuvant 4],78
3,CCCCCCOc1cc(OCCOCCOCCOCCOCCOCCOCCOCCOCCOCCOC)ncn1 [Adjuvant 2],56
4,CCCCCCCCCCCCOc1cc(OCCOCCOCCOCCOCCOCCOCCOCCOCCOCCOC)ncn1 [Adjuvant 7],98
5,CCCCCCOc1cc(OCCOCCOCCOCCOCCOCCOCCOCCOCCOCCOCCOCCOCCOCCOCCOCCOCCOCCOCCOCCOC)ncn1 [Adjuvant 3],52

# Test system: Setaria viridis (SETVI)
# Test: as above
# Assay type: in vivo
# Settings: pinoxaden EC, mean over 7.5 and 15 g/ha and 3 replicates; adjuvant 0.2% v/v (none in No Adjuvant rows); % leaf area killed, 21 days after application; Tests 1-4 separate runs
# Protocol: as §4, §5
row,Structure (SMILES),Mean % Herbicidal Activity SETVI [%]
1,CCCCCCCCC=CCCCCCCCCOc1cc(OCCOCCOC)ncn1 [Adjuvant 9],91
2,CCCCCCCCCOc1cc(OCCOCCOCCOCCOCCOCCOCCOC)ncn1 [Adjuvant 4],82
3,CCCCCCOc1cc(OCCOCCOCCOCCOCCOCCOCCOCCOCCOCCOC)ncn1 [Adjuvant 2],87
4,CCCCCCCCCCCCOc1cc(OCCOCCOCCOCCOCCOCCOCCOCCOCCOCCOC)ncn1 [Adjuvant 7],97
5,CCCCCCOc1cc(OCCOCCOCCOCCOCCOCCOCCOCCOCCOCCOCCOCCOCCOCCOCCOCCOCCOCCOCCOCCOC)ncn1 [Adjuvant 3],88

# Test system: Alopecurus myosuroides (ALOMY)
# Test: as above
# Assay type: in vivo
# Settings: pinoxaden EC, mean over 7.5 and 15 g/ha and 3 replicates; adjuvant 0.2% v/v (none in No Adjuvant rows); % leaf area killed, 21 days after application; Tests 1-4 separate runs
# Protocol: as §4, §5
row,Structure (SMILES),Mean % Herbicidal Activity ALOMY [%]
1,CCCCCCCCC=CCCCCCCCCOc1cc(OCCOCCOC)ncn1 [Adjuvant 9],17
2,CCCCCCCCCOc1cc(OCCOCCOCCOCCOCCOCCOCCOC)ncn1 [Adjuvant 4],18
3,CCCCCCOc1cc(OCCOCCOCCOCCOCCOCCOCCOCCOCCOCCOC)ncn1 [Adjuvant 2],16
4,CCCCCCCCCCCCOc1cc(OCCOCCOCCOCCOCCOCCOCCOCCOCCOCCOC)ncn1 [Adjuvant 7],63
5,CCCCCCOc1cc(OCCOCCOCCOCCOCCOCCOCCOCCOCCOCCOCCOCCOCCOCCOCCOCCOCCOCCOCCOCCOC)ncn1 [Adjuvant 3],15

# Test system: Lolium perenne (LOLPE)
# Test: as above
# Assay type: in vivo
# Settings: pinoxaden EC, mean over 7.5 and 15 g/ha and 3 replicates; adjuvant 0.2% v/v (none in No Adjuvant rows); % leaf area killed, 21 days after application; Tests 1-4 separate runs
# Protocol: as §4, §5
row,Structure (SMILES),Mean % Herbicidal Activity LOLPE [%]
1,CCCCCCCCC=CCCCCCCCCOc1cc(OCCOCCOC)ncn1 [Adjuvant 9],40
2,CCCCCCCCCOc1cc(OCCOCCOCCOCCOCCOCCOCCOC)ncn1 [Adjuvant 4],30
3,CCCCCCOc1cc(OCCOCCOCCOCCOCCOCCOCCOCCOCCOCCOC)ncn1 [Adjuvant 2],28
4,CCCCCCCCCCCCOc1cc(OCCOCCOCCOCCOCCOCCOCCOCCOCCOCCOC)ncn1 [Adjuvant 7],78
5,CCCCCCOc1cc(OCCOCCOCCOCCOCCOCCOCCOCCOCCOCCOCCOCCOCCOCCOCCOCCOCCOCCOCCOCCOC)ncn1 [Adjuvant 3],22

# Test system: Septoria tritici
# Test: Adjuvant efficacy with isopyrazam on inoculated wheat plants
# Assay type: in vivo
# Settings: isopyrazam SC, mean over 6.5, 16, 40 and 100 mg/l and 4 replicates, sprayed 4 days after inoculation, percentage of leaf area infected 17-18 days after infection, Tests 1-3 separate runs
# Protocol: Adjuvants 6, 7, 8 and 10 were tested as adjuvants for agrochemical compositions comprising isopyrazam.
# Two week old wheat plants were inoculated with the fungus Septoria tritici. […] All spray solutions also contained 10% v/v of iso-Propanol. The leaves of the plants were assessed visually 17-18 days after infection and the damage was expressed as the percentage of the leaf area infected. Each spray test was replicated four times across the four application rates.
# The results shown in Table 6 below are mean averages over the four rates of isopyrazam and the four replicates.
row,Structure (SMILES),Disease Damage Mean [%]
1,CCCCCCCCCCCCOc1cc(OCCOCCOCCOCCOCCOCCOCCOCCOCCOCCOC)ncn1 [Adjuvant 7],12

# Test system: Brachiaria platyphylla (BRAPP)
# Test: Adjuvant efficacy with mesotrione, glasshouse spray test
# Assay type: in vivo
# Settings: mesotrione SC, mean over 30 and 60 g/ha and 3 replicates; adjuvant 0.2% v/v (none in No Adjuvant rows); % leaf area killed, 21 days after application; Tests 1-3 separate runs
# Protocol: as §1, §2, §3
row,Structure (SMILES),Mean % Herbicidal Activity BRAPP [%]
1,CCCCCCCCC=CCCCCCCCCOc1cc(OCCOCCOC)ncn1 [Adjuvant 9],69
2,CCCCCCCCCOc1cc(OCCOCCOCCOCCOCCOCCOCCOC)ncn1 [Adjuvant 4],43
3,CCCCCCOc1cc(OCCOCCOCCOCCOCCOCCOCCOCCOCCOCCOC)ncn1 [Adjuvant 2],52
4,CCCCCCCCCCCCOc1cc(OCCOCCOCCOCCOCCOCCOCCOCCOCCOCCOC)ncn1 [Adjuvant 7],68
5,CCCCCCOc1cc(OCCOCCOCCOCCOCCOCCOCCOCCOCCOCCOCCOCCOCCOCCOCCOCCOCCOCCOCCOCCOC)ncn1 [Adjuvant 3],38

# Test system: four weed species (ALOMY, AVEFA, LOLPE, SETVI)
# Test: Adjuvant efficacy with pinoxaden, glasshouse spray test, average over all species
# Assay type: in vivo
# Settings: pinoxaden EC, mean over 7.5 and 15 g/ha, adjuvant 0.2% v/v (none in No Adjuvant rows), 21 days, average of ALOMY
# Protocol: as §4, §5
row,Structure (SMILES),Mean % Herbicidal Activity Average over all Species [%]
1,CCCCCCCCC=CCCCCCCCCOc1cc(OCCOCCOC)ncn1 [Adjuvant 9],58
2,CCCCCCCCCOc1cc(OCCOCCOCCOCCOCCOCCOCCOC)ncn1 [Adjuvant 4],52
3,CCCCCCOc1cc(OCCOCCOCCOCCOCCOCCOCCOCCOCCOCCOC)ncn1 [Adjuvant 2],47
4,CCCCCCCCCCCCOc1cc(OCCOCCOCCOCCOCCOCCOCCOCCOCCOCCOC)ncn1 [Adjuvant 7],84
5,CCCCCCOc1cc(OCCOCCOCCOCCOCCOCCOCCOCCOCCOCCOCCOCCOCCOCCOCCOCCOCCOCCOCCOCCOC)ncn1 [Adjuvant 3],44

# Test system: four weed species (ABUTH, CHEAL, DIGSA, SETVI)
# Test: Adjuvant efficacy with nicosulfuron, glasshouse spray test, average over all species
# Assay type: in vivo
# Settings: nicosulfuron WG, mean over 15 and 60 g/ha, adjuvant 0.2% v/v (none in No Adjuvant rows), 21 days, average of ABUTH
# Protocol: The efficacy of adjuvants 1-12 as adjuvants for the herbicide nicosulfuron were tested in a glasshouse against four weed species sown into standard soil in pots and cultivated under controlled conditions in a glasshouse (at 24/18° C. day/night; 16 hours light; 65% humidity). Nicosulfuron was added to the spray tank as a standard WG (water dispersible granule) formulation.
# The spray tests were also carried out using nicosulfuron in conjunction with adjuvants 1-12. The adjuvant was added to the spray solution at a rate of 0.2% v/v. All spray solutions also contained 12.5% v/v of iso-Propanol. The weed species and their BBCH growth stage at spraying were Abutilon theophrasti (ABUTH; growth stage 13), Chenopodium album (CHEAL; growth stage 13-14), Digitaria sanguinalis (DIGSA; growth stage 11), and Setaria viridis (SETVI; growth stage 13). Each spray test was replicated three times. The test plants were then grown in a glasshouse under controlled conditions (at 24/18° C. day/night; 16 hours light; 65% humidity) and watered twice a day. The efficacy of the herbicide was assessed visually and expressed as a percentage of the leaf area killed. Samples were assessed at a time period of 21 days following application. The results shown in Table 1 below are mean averages over the two rates of nicosulfuron, and the three replicates.
row,Structure (SMILES),Mean % Herbicidal Activity Average over all Species [%]
1,CCCCCCCCC=CCCCCCCCCOc1cc(OCCOCCOC)ncn1 [Adjuvant 9],80
2,CCCCCCCCCOc1cc(OCCOCCOCCOCCOCCOCCOCCOC)ncn1 [Adjuvant 4],73
3,CCCCCCOc1cc(OCCOCCOCCOCCOCCOCCOCCOCCOCCOCCOC)ncn1 [Adjuvant 2],82
4,CCCCCCCCCCCCOc1cc(OCCOCCOCCOCCOCCOCCOCCOCCOCCOCCOC)ncn1 [Adjuvant 7],81
5,CCCCCCOc1cc(OCCOCCOCCOCCOCCOCCOCCOCCOCCOCCOCCOCCOCCOCCOCCOCCOCCOCCOCCOCCOC)ncn1 [Adjuvant 3],76

# Source: patent US11439148B2, “Pyrimidine derivatives” (SYNGENTA PARTICIPATIONS AG, priority 2017, dated 2022)
